Laboratory results taken from US20080292584A1 (priority 2005, published 2008).
Where “and” joins values, the source holds several entries; their conditions need not be identical. Equal entries are not always repeated. Where two headings read alike, the source gives them in different places.

Experiments:
CYP2C19 [1] = target: T1, CYP2C19 (Homo sapiens, UniProt P33261); assay: Metabolism of metaxalone by expressed recombinant human CYP2C19 (Example 1); settings: for Metaxalone Present Adjusted Individual / Metaxalone Present Adjusted Mean ± SD / Metaxalone Present Raw / Percent of Metabolic Negative Control Individual / Percent of Metabolic Negative Control Mean ± SD: 36 min;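 for all read-outs here: microsomes with expressed CYP2C19 (10 pmol P450) in Tris buffer with 1% methanol, reaction started by an NADPH regenerating system after 5 min preincubation, 0.5 mL volume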
Description: Commercially available microsomes from baculovirus-infected insect cells containing singly-expressed recombinant wild-type (*1 allele) human CYP enzymes and cDNA-expressed human cytochrome p450 oxidoreductase [BD SUPERSOMES Enzymes; BD Biosciences Discovery Labware (Woburn, Mass.)] were used.
After a 5-minute pre-incubation, an NADPH regenerating system (NRS) was added to the incubation mixtures to initiate reactions, with a final incubation volume of 0.5 mL. Incubations were continued for 30 minutes, and then terminated, except for those for CYP2C19, which were incubated for 36 minutes prior to termination.
Matrix controls were performed to determine the background signal from the matrix components (microsomes (10 pmol p450), 01N Tris buffer, NRS, and 1% methanol). […] After a 5-minute pre-incubation, 2% sodium bicarbonate solution was added to the incubation mixtures. Incubation was for 30 minutes at a final volume of 0.5 mL. Matrix and metabolic negative controls were terminated by adding an equal volume of methanol. […] Analysis of samples was subsequent to storage at −70° C.

CYP2B6 [2] = target: T2, CYP2B6 (Homo sapiens, UniProt P20813); assay: Metabolism of metaxalone by expressed recombinant human CYP2B6 at 5 or 20 pmol (Example 4); settings: for % Turnover Mean / [metaxalone] Mean / % Turnover % / [metaxalone]: 60 min; for % Turnover % / [metaxalone]: single replicates
T2 sequence (P20813 1-491): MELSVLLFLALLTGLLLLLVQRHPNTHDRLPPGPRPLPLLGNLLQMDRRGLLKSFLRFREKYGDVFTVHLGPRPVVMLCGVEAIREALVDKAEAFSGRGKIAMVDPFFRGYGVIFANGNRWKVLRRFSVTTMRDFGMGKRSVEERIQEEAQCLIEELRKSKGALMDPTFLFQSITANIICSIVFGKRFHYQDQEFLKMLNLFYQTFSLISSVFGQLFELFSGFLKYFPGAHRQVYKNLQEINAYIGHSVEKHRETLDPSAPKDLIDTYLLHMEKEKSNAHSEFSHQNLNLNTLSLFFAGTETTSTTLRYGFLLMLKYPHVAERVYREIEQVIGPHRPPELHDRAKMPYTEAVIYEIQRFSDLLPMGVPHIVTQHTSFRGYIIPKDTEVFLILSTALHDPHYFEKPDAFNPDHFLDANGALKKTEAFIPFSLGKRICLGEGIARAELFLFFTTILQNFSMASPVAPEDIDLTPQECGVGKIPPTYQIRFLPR

CYP2C19 [3] = target: T1, CYP2C19; settings: for 4′-Hydroxymephenytoin formation Adjusted Individual / 4′-Hydroxymephenytoin formation Adjusted Mean ± SD: 4 h; for Percent of VC / Specific Activity Individual / Specific Activity Mean ± SD: 48 h
Excerpt: (§1) Hepatocytes from three human donors were obtained from a cryopreserved hepatocyte bank (In Vitro Technologies, Inc., USA). After thawing, viable hepatocytes were transferred to collagen-coated 48-well plates for attachment in plating medium (DMEM stock (Dulbecco's modified Eagle's medium, supplemented with bovine serum albumin, fructose, N-(2-hydroxyethyl)piperazine-N′-(2-ethanesulfonate) (HEPES), and sodium bicarbonate), supplemented with antibiotics, bovine serum, hydrocortisone, insulin and minimum essential medium (MEM) nonessential amino acids). After attachment to the collagen matrix, plating medium was replaced with sandwich medium (plating medium supplemented with VITROGEN) and incubated until use.
(§2) The supplemented KHB was replaced with 150 μL supplemented KHB containing the appropriate isoform-selective substrate and incubated for 4 hrs prior to termination by adding 150 μL ice-cold methanol, except for the CYP2C8 incubations which were terminated by adding 150 μL acetonitrile.
(§3) All substrates were dissolved in acetonitrile.
(§4) Replicate trials and controls were performed. […] Additionally, reference control samples were included to evaluate inducibility of CYP2B6, CYP2C9, and CYP2C19 in the test system.
(§5) Mean specific activity values with associated p-values≦0.05 were deemed to be statistically significant.

CYP2E1 = CYP2E1 (Homo sapiens, UniProt P05181); assay: Chemical inhibition of metaxalone turnover in human liver microsomes, CYP2E1 inhibitor clomethiazole; settings: 1 mg/mL HLM, 60 min, with clomethiazole; for % Turnover / % inhibition of turnover / Conc.: single replicates
Description: (§6) Human liver microsomes pooled from 15 individuals (male and female) (Pool HMMC-PL020; CellzDirect, Inc., In Vitro Products and Services Division) were used in some experiments of this study.
(§7) % Turnover=100−{[TA(final)]/[mean of TA(0 min)]}×100,
(§8) % Inhibition of Turnover=100{1−([TA(0 min)]−[TA(final-inhibitor)])/([TA(0 min)]−[TA(final-no inhibitor)])}.
(§9) The inhibitors or vehicle control were incubated with the pooled human liver microsomes (1 mg/mL) and NADPH (1 mM) in 0.1 M phosphate buffer, pH 7.4. […] Incubations were conducted in triplicate and terminated by addition of organic solvent. Samples were extracted and analyzed by LC-MS/MS as described above.

CYP3A4 = CYP3A4 (Homo sapiens, UniProt P08684); settings: for % Turnover Mean: both, human, microsomes, 1 h, pH 7.4
Description: as §6, §7, §8, §9

CYP2B6 [4] = assay: Induction/inhibition of CYP2B6 activity in cryopreserved human hepatocytes (S-mephenytoin); settings: human; for Nirvanol formation Adjusted Mean ± SD: 48 h
Excerpt: as §1, §2, §3, §4, §5

[5] = 0.75 μM metaxalone, 5 pmol cyp, listed as Metaxalone
[6] = 0.75 μM metaxalone, 20 pmol cyp
[7] = 0.75 μM metaxalone, 20 pmol cyp, listed as Metaxalone
[8] = 7.5 μM metaxalone, 5 pmol cyp, listed as Metaxalone
[9] = 7.5 μM metaxalone, 20 pmol cyp, listed as Metaxalone
[10] = 0.75 μM metaxalone, 1 mg/mL HLM, 60 min, with ketoconazole
[11] = 0.75 μM metaxalone, 1 mg/mL HLM, 60 min, with ketoconazole, single replicates
[12] = 7.5 μM metaxalone, 1 mg/mL HLM, 60 min, with ketoconazole
[13] = 7.5 μM metaxalone, 1 mg/mL HLM, 60 min, with ketoconazole, single replicates

Chain of CYP3A4 (P08684 whole entry): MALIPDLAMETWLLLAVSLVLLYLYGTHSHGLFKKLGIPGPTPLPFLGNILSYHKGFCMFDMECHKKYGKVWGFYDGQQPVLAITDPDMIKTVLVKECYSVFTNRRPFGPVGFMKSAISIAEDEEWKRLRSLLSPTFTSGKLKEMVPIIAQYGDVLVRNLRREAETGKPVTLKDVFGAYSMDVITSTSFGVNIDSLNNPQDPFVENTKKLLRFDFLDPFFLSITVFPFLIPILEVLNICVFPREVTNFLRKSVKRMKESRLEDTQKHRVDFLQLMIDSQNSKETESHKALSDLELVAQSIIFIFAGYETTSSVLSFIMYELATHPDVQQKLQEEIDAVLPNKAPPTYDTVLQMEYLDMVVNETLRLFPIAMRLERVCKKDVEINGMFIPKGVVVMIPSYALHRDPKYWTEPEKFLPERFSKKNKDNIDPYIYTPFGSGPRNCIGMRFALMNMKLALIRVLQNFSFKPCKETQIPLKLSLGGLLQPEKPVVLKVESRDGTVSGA
Chain of CYP2E1 (P05181 whole entry): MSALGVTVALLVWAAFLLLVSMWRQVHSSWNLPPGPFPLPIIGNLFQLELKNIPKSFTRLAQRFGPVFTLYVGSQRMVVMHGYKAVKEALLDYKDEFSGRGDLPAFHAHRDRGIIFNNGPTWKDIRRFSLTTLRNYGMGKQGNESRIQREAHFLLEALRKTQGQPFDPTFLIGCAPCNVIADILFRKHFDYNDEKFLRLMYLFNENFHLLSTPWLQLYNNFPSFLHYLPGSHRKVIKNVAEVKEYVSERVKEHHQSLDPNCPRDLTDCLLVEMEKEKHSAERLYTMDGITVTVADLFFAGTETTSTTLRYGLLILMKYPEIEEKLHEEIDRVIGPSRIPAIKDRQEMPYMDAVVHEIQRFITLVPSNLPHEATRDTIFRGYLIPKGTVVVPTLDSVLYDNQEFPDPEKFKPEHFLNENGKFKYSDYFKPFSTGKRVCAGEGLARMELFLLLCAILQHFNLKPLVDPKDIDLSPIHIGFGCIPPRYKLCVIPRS
T1 sequence (P33261 whole entry): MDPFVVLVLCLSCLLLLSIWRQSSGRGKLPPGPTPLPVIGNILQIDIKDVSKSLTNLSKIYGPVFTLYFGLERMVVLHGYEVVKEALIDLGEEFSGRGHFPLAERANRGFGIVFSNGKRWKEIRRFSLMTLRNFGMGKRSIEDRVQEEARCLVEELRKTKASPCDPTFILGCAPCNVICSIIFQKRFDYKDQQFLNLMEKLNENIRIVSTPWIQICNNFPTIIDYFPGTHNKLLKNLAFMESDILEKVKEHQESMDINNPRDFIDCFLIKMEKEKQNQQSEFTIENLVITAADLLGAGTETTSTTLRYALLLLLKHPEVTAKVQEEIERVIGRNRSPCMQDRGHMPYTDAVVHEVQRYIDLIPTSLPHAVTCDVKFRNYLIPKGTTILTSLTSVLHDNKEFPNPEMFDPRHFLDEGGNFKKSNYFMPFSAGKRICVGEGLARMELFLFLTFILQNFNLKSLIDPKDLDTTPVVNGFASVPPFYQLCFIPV

For Cc1cc(C)cc(OCC2CNC(=O)O2)c1 (stereo not shown) [metaxalone, 5-[(3,5-dimethylphenoxy)methyl]-2-oxazolidinone], the “mean disappearance of metaxalone” value (CYP2C19 [1]; 0.5 μM metaxalone) was 6.6%, the “Metaxalone Present Adjusted Individual” value (CYP2C19 [1]; metaxalone 0.5 μM) was 0.335 µM and 0.344 µM and 0.356 µM and the “Metaxalone Present Adjusted Mean ± SD” value (CYP2C19 [1]; metaxalone 0.5 μM) was 0.345 ± 0.0104 µM. For the same compound, the “Metaxalone Present Raw” value (CYP2C19 [1]; metaxalone 0.5 μM) was 0.1677 µM and 0.1718 µM and 0.1781 µM, the “Percent of Metabolic Negative Control Individual” value (CYP2C19 [1]; metaxalone 0.5 μM) was 90.8% and 93.0% and 96.4% and the “Percent of Metabolic Negative Control Mean ± SD” value (CYP2C19 [1]; metaxalone 0.5 μM) was 93.4 ± 2.82%. For the same compound, the “Metaxalone Present Adjusted Individual” value (CYP2C19 [1]; metaxalone 2.5 μM) was 1.34 μM (2×) and 1.35 μM, the “Metaxalone Present Adjusted Mean ± SD” value (CYP2C19 [1]; metaxalone 2.5 μM) was 1.34 ± 0.00561 µM and the “Metaxalone Present Raw” value (CYP2C19 [1]; metaxalone 2.5 μM) was 0.6722 µM and 0.6725 µM and 0.6675 µM. For the same compound, the “Percent of Metabolic Negative Control Individual” value (CYP2C19 [1]; metaxalone 2.5 μM) was 96.7% (2×) and 96.0%, the “Percent of Metabolic Negative Control Mean ± SD” value (CYP2C19 [1]; metaxalone 2.5 μM) was 96.5 ± 0.404% and the “Metaxalone Present Adjusted Individual” value (CYP2C19 [1]; metaxalone 25 μM) was 18.7 μM (2×) and 18.5 μM. For the same compound, the “Metaxalone Present Adjusted Mean ± SD” value (CYP2C19 [1]; metaxalone 25 μM) was 18.6 ± 0.120 µM, the “Metaxalone Present Raw” value (CYP2C19 [1]; metaxalone 25 μM) was 9.345 µM and 9.359 µM and 9.249 µM and the “Percent of Metabolic Negative Control Individual” value (CYP2C19 [1]; metaxalone 25 μM) was 92.9% and 93.0% and 91.9%. The “Percent of Metabolic Negative Control Mean ± SD” value (CYP2C19 [1]; metaxalone 25 μM) was 92.6 ± 0.597%, the “% Turnover Mean” value (CYP2B6 [2]; 0.75 μM metaxalone, 5 pmol cyp) was −6.8% and the “[metaxalone] Mean” value (CYP2B6 [2]; 0.75 μM metaxalone, 5 pmol cyp) was 0.845 µM. The “% Turnover %” value (CYP2B6 [2]; [5]) was −11.0% and −2.8% and −6.6%, the “[metaxalone]” value (CYP2B6 [2]; [5]) was 0.878 µM and 0.813 µM and 0.843 µM and the “% Turnover Mean” value (CYP2B6 [2]; [6]) was −1.8%. For the same compound, the “[metaxalone] Mean” value (CYP2B6 [2]; [6]) was 0.805 µM, the “% Turnover %” value (CYP2B6 [2]; [7]) was 5.5% and −6.7% and −4.0% and the “[metaxalone]” value (CYP2B6 [2]; [7]) was 0.748 µM and 0.845 µM and 0.823 µM. For the same compound, the “% Turnover Mean” value (CYP2B6 [2]; 7.5 μM metaxalone, 5 pmol cyp) was 3.0%, the “[metaxalone] Mean” value (CYP2B6 [2]; 7.5 μM metaxalone, 5 pmol cyp) was 8.20 µM and the “% Turnover %” value (CYP2B6 [2]; 7.5 μM metaxalone, 5 pmol cyp) was −1.3%. For the same compound, the “% Turnover %” value (CYP2B6 [2]; [8]) was 3.0% and 7.2%, the “[metaxalone]” value (CYP2B6 [2]; [8]) was 8.56 µM and 8.19 µM and 7.84 µM and the “% Turnover Mean” value (CYP2B6 [2]; 7.5 μM metaxalone, 20 pmol cyp) was −0.20%. For the same compound, the “[metaxalone] Mean” value (CYP2B6 [2]; 7.5 μM metaxalone, 20 pmol cyp) was 8.46 µM, the “% Turnover %” value (CYP2B6 [2]; 7.5 μM metaxalone, 20 pmol cyp) was −6.0% and the “% Turnover %” value (CYP2B6 [2]; [9]) was 1.8% and 3.6%. For the same compound, the “[metaxalone]” value (CYP2B6 [2]; [9]) was 8.95 µM and 8.29 µM and 8.14 µM, the Substrate (CYP2B6 [2]; CYP isozyme 2B6, summary of studies) was 0 and the Inducer/Inhibitor (CYP2C19 [3]) was 0. The “4′-Hydroxymephenytoin formation Adjusted Individual” value (CYP2C19 [3]; 0.4 µM) was <0.0500 µM, the “4′-Hydroxymephenytoin formation Adjusted Mean ± SD” value (CYP2C19 [3]; 0.4 µM) was <0.0500 ± 0.000 µM and the “4′-Hydroxymephenytoin formation Adjusted Individual” value (CYP2C19 [3]; 0.4 μM) was <0.0500 µM. The “4′-Hydroxymephenytoin formation Adjusted Mean ± SD” value (CYP2C19 [3]; 0.4 μM) was <0.0500 ± 0.000 µM, the “4′-Hydroxymephenytoin formation Adjusted Individual” value (CYP2C19 [3]; 4 µM) was <0.0500 µM and the “4′-Hydroxymephenytoin formation Adjusted Mean ± SD” value (CYP2C19 [3]; 4 µM) was <0.0500 ± 0.000 µM. The “4′-Hydroxymephenytoin formation Adjusted Individual” value (CYP2C19 [3]; 4 μM) was <0.0500 µM, the “4′-Hydroxymephenytoin formation Adjusted Mean ± SD” value (CYP2C19 [3]; 4 μM) was <0.0500 ± 0.000 µM and the “4′-Hydroxymephenytoin formation Adjusted Individual” value (CYP2C19 [3]; 40 µM) was <0.0500 µM. For the same compound, the “4′-Hydroxymephenytoin formation Adjusted Mean ± SD” value (CYP2C19 [3]; 40 µM) was <0.0500 ± 0.000 µM, the “4′-Hydroxymephenytoin formation Adjusted Individual” value (CYP2C19 [3]; 40 μM) was <0.0500 µM and the “4′-Hydroxymephenytoin formation Adjusted Mean ± SD” value (CYP2C19 [3]; 40 μM) was <0.0500 ± 0.000 µM. The “Percent of VC” value (CYP2C19 [3]; 0.4 µM) was 100%, the “Specific Activity Individual” value (CYP2C19 [3]; 0.4 µM) was <0.446 pmol/min/million cells and the “Specific Activity Mean ± SD” value (CYP2C19 [3]; 0.4 µM) was <0.446 ± 0.000 pmol/min/million cells. For the same compound, the “Percent of VC” value (CYP2C19 [3]; 0.4 μM) was 100%, the “Specific Activity Individual” value (CYP2C19 [3]; 0.4 μM) was <0.446 pmol/min/million cells and the “Specific Activity Mean ± SD” value (CYP2C19 [3]; 0.4 μM) was <0.446 ± 0.000 pmol/min/million cells. The “Percent of VC” value (CYP2C19 [3]; 4 µM) was 100%, the “Specific Activity Individual” value (CYP2C19 [3]; 4 µM) was <0.446 pmol/min/million cells and the “Specific Activity Mean ± SD” value (CYP2C19 [3]; 4 µM) was <0.446 ± 0.000 pmol/min/million cells. The “Percent of VC” value (CYP2C19 [3]; 4 μM) was 100%, the “Specific Activity Individual” value (CYP2C19 [3]; 4 μM) was <0.446 pmol/min/million cells and the “Specific Activity Mean ± SD” value (CYP2C19 [3]; 4 μM) was <0.446 ± 0.000 pmol/min/million cells. For the same compound, the “Percent of VC” value (CYP2C19 [3]; 40 µM) was 100%, the “Specific Activity Individual” value (CYP2C19 [3]; 40 µM) was <0.446 pmol/min/million cells and the “Specific Activity Mean ± SD” value (CYP2C19 [3]; 40 µM) was <0.446 ± 0.000 pmol/min/million cells. For the same compound, the “Percent of VC” value (CYP2C19 [3]; 40 μM) was 100%, the “Specific Activity Individual” value (CYP2C19 [3]; 40 μM) was <0.446 pmol/min/million cells and the “Specific Activity Mean ± SD” value (CYP2C19 [3]; 40 μM) was <0.446 ± 0.000 pmol/min/million cells. The “% inhibition of turnover Mean” value (CYP2E1; 0.75 μM metaxalone) was 113%, the “Mean Conc.” value (CYP2E1; 0.75 μM metaxalone) was 0.802 µM and the “% Turnover” value (CYP2E1; 0.75 μM metaxalone) was 5.6%. The “% inhibition of turnover” value (CYP2E1; 0.75 μM metaxalone) was 104% and 154% and 81.4%, the “Conc.” value (CYP2E1; 0.75 μM metaxalone) was 0.780 µM and 0.896 µM and 0.729 µM and the “% Turnover Mean” value (CYP2E1; 7.5 μM metaxalone) was 0.356%. The “% inhibition of turnover Mean” value (CYP2E1; 7.5 μM metaxalone) was 98.6%, the “Mean Conc.” value (CYP2E1; 7.5 μM metaxalone) was 8.48 µM and the “% Turnover” value (CYP2E1; 7.5 μM metaxalone) was 2.7%. The “% inhibition of turnover” value (CYP2E1; 7.5 μM metaxalone) was 89.2% and 101% and 105%, the “Conc.” value (CYP2E1; 7.5 μM metaxalone) was 8.29 µM and 8.54 µM and 8.63 µM and the “% inhibition of turnover Mean” value (CYP3A4; [10]) was 126%. The “Mean Conc.” value (CYP3A4; [10]) was 0.831 µM, the “% inhibition of turnover” value (CYP3A4; [11]) was 132% and 116% and 130% and the “Conc.” value (CYP3A4; [11]) was 0.844 µM and 0.807 µM and 0.842 µM. For the same compound, the “% inhibition of turnover Mean” value (CYP3A4; [12]) was 130%, the “Mean Conc.” value (CYP3A4; [12]) was 9.13 µM and the “% Turnover” value (CYP3A4; [13]) was 0.28%. The “% inhibition of turnover” value (CYP3A4; [13]) was 98.8% and 161% and 129%, the “Conc.” value (CYP3A4; [13]) was 8.49 µM and 9.78 µM and 9.12 µM and the “% Turnover Mean” value (CYP3A4; 0.75 μM) was −7.71%. The “% Turnover Mean” value (CYP3A4; 7.5 μM) was −7.26%, the Inducer/Inhibitor (CYP2B6 [4]) was 0 and the “Nirvanol formation Adjusted Mean ± SD” value (CYP2B6 [4]; 0.4 μM) was 0.0340 ± 0.000883 µM. The “Nirvanol formation Adjusted Mean ± SD” value (CYP2B6 [4]; 4 μM) was 0.0305 ± 0.00272 µM.
